In patent US9650395B2, “Antibacterial compounds and methods for use” (PTC Therapeutics, Inc., priority 2011, dated 2017):
Counter-ions that a name gives are not always drawn.

Legend:
various organisms = test: Microdilution checkerboard method, combination with ciprofloxacin (MIC and FIC); format: cell-based; settings: single agent
[1] = tested on: super sensitive Gram-negative Escherichia coli (E. coli) BAS849; test: Antibacterial activity, microbroth dilution MIC, E. coli BAS849; format: cell-based; settings: Escherichia coli; E. coli BAS849, microbroth dilution; read-out: MIC, BAS849
[2] = tested on: control Gram-negative E. coli 25922 strain; test: Antibacterial activity, microbroth dilution MIC, E. coli 25922; format: cell-based, Escherichia coli; settings: Escherichia coli; E. coli 25922, microbroth dilution; read-out: MIC, 25922
[3] = tested on: Gram-positive Staphylococcus aureus (S. aureus) 29213; test: Antibacterial activity, microbroth dilution MIC, S. aureus 29213; format: cell-based; settings: Staphylococcus aureus; S. aureus 29213, microbroth dilution; read-out: MIC, 29213
[4] = tested on: quinolone resistant E. coli LZ3111; test: Antibacterial activity, MIC, quinolone resistant E. coli LZ3111; format: cell-based, Escherichia coli; settings: Escherichia coli, read-out: MIC, LZ3111
Text: (§1) The antibacterial activity from a microbroth dilution method may be presented as the minimum inhibitory concentration (MIC in […]). The MIC value is the lowest concentration of a drug which prevents macroscopically visible bacterial growth under test conditions.
Mutations in these regions are known to confer a high level resistance to the quinolone class of antibiotics.

[5] = tested on: E. coli ELZ4251 (MDR clinical isolate); test: Antibacterial activity, MIC, MDR E. coli ELZ4251; format: cell-based, Escherichia coli; settings: E. coli ELZ4251, MDR clinical isolate; for MIC: Escherichia coli, read-out: MIC ELZ4251
[6] = tested on: Acinetobacter baumannii (A. baumannii) BAA747; test: Antibacterial activity, MIC, A. baumannii BAA747; format: cell-based; settings: Acinetobacter baumannii; A. baumannii BAA747; read-out: MIC BAA747
[7] = tested on: Klebsiella pneumoniae (K. pneumoniae) 35657; test: Antibacterial activity, MIC, K. pneumoniae 35657; format: cell-based; settings: Klebsiella pneumoniae
[8] = tested on: resistant A. baumannii MXX2240 (MDR clinical isolate); test: Antibacterial activity, MIC, resistant A. baumannii MXX2240; format: cell-based, Acinetobacter baumannii; settings: resistant A. baumannii MMX2240, MDR clinical isolate; for MIC: Acinetobacter baumannii, read-out: MIC MMX2240
[9] = tested on: resistant K. pneumoniae MXX1232 (MDR clinical isolate); test: Antibacterial activity, MIC, resistant K. pneumoniae MXX1232; format: cell-based, Klebsiella pneumoniae; settings: Klebsiella pneumoniae; resistant K. pneumoniae MMX1232, MDR clinical isolate; read-out: MIC MMX1232
[10] = tested on: Pseudomonas aeruginosa (P. aeruginosa) 27853; test: Antibacterial activity, MIC, P. aeruginosa 27853; format: cell-based; settings: P. aeruginosa 27853; for MIC: Pseudomonas aeruginosa, read-out: MIC 27853
Text: as §1
Antibacterial activity of test compounds against the Gram-negative bacterium Pseudomonas aeruginosa (P. aeruginosa) 27853 is shown in Table 5.

[11] = tested on: Moraxella catarrhalis (M. catarrhalis) 25238; test: Antibacterial activity, MIC, M. catarrhalis 25238; format: cell-based; settings: M. catarrhalis 25238; for MIC: Moraxella catarrhalis, read-out: MIC 25238
[12] = tested on: E. coli ELZ4000 (MDR clinical isolate); test: Antibacterial activity, MIC, MDR E. coli ELZ4000; format: cell-based, Escherichia coli; settings: Escherichia coli; E. coli ELZ4000, MDR clinical isolate; read-out: MIC ELZ4000
[13] = tested on: Haemophilus influenzae (H. influenzae) 49247; test: Antibacterial activity, MIC, H. influenzae 49247; format: cell-based; settings: Haemophilus influenzae; H. influenzae 49247; read-out: MIC 49247
Procedure, shortened: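 Antibacterial activity against the Gram-negative organism Haemophilus influenzae strain 49247 was measured by microbroth dilution. The minimum inhibitory concentration (MIC) was taken as the lowest drug concentration that stopped bacterial growth from being visible to the naked eye under the test conditions.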

[14] = tested on: Neisseria meningitidis (N. meningitidis) 13090; test: Antibacterial activity, MIC, N. meningitidis 13090; format: cell-based; settings: Neisseria meningitidis; N. meningitidis 13090; read-out: MIC 13090
[15] = Acinetobacter baumannii, A. baumannii (MDR)
[16] = Acinetobacter baumannii, BAA747, A. baumannii BAA747
[17] = Escherichia coli, E. coli 25922
[18] = Klebsiella pneumoniae, K. pneumoniae 35657
[19] = Pseudomonas aeruginosa, P. aeruginosa 27853
[20] = Staphylococcus aureus, S. aureus 29213
[21] = Staphylococcus aureus, S. aureus (MDR)

Which MIC (various organisms; [15]) does the source give for `O=C(O)c1cn(C2CC2)c2cc(N3CCNCC3)c(F)cc2c1=O` [Cipro, ciprofloxacin, reference compound] here?
The MIC was 125 µg/mL.

What about the MIC (various organisms; [16]) of the same compound?
Its MIC is 0.098 µg/mL.

And the MIC (various organisms; Escherichia coli, E. coli 3111)?
Its MIC is 125 µg/mL.

And the MIC (various organisms; [17])?
The MIC was 0.013 µg/mL.

And the MIC (various organisms; [18])?
Its MIC is 0.01 µg/mL.

What about the MIC (various organisms; [19]) of the same compound?
The MIC was 0.2 µg/mL.

What about the MIC (various organisms; [20]) of the same compound?
Its MIC is 0.39 µg/mL.

What about the MIC (various organisms; [21]) of the same compound?
The MIC was 31.2 µg/mL.

Which MIC [1] does the source give for `CCc1c(-c2ccc(N3C[C@@H]4[C@@H](N)[C@@H]4C3)cc2)[nH]c(=O)c(C(=O)O)c1O` [Cpd 269, 6-{4-[(1R,5S,6s)-6-amino-3-azabicyclo[3.1.0]hex-3-yl]phenyl}-5-ethyl-4-hydroxy-2-oxo-1,2-dihydropyridine-3-carboxylic acid hydrochloride] here?
The MIC was less than 1 µg/mL.

And the MIC [2]?
Its MIC is less than 1 µg/mL.

What about the MIC [3] of the same compound?
Its MIC is 3.5 to 12.5 µg/mL.

What about the MIC [4] of the same compound?
The MIC was 3.5 to 12.5 µg/mL.

And the “MIC ELZ4251” value ([5]; hydrochloride)?
The value was “* (an MIC value between >12.5 μg/mL and ≦150 μg/mL is indicated by a single star (*))”.

And the MIC [6]?
Its MIC is less than 1 µg/mL.

And the MIC [7]?
Its MIC is less than 1 µg/mL.

What about the “MIC MMX2240” value ([8]; hydrochloride) of the same compound?
Its value is “** (an MIC value between >3.5 μg/mL and ≦12.5 μg/mL is indicated by two stars (**))”.

And the MIC [9]?
The MIC was 12.5 to 150 µg/mL.

And the “MIC 27853” value ([10]; hydrochloride)?
Its value is “*** (an MIC value between >1.0 μg/mL and ≦3.5 μg/mL is indicated by three stars (***))”.

And the “MIC 25238” value ([11]; hydrochloride)?
Its value is “**** (an MIC value of ≦1.0 μg/mL is indicated by four stars (****))”.

And the MIC (various organisms; [15])?
The MIC was 12.5 µg/mL.

What about the MIC (various organisms; [16]) of the same compound?
The MIC was 0.39 µg/mL.

And the MIC (various organisms; Escherichia coli, E. coli 3111)?
The MIC was 3.1 µg/mL.

What about the MIC (various organisms; [17]) of the same compound?
Its MIC is 0.19 µg/mL.

And the MIC (various organisms; [18])?
Its MIC is 0.39 µg/mL.

What about the MIC (various organisms; [19]) of the same compound?
Its MIC is 1.6 µg/mL.

What about the MIC (various organisms; [20]) of the same compound?
Its MIC is 3.12 µg/mL.

And the MIC (various organisms; [21])?
Its MIC is 6.2 µg/mL.

What does the source list for `CCc1c(-c2ccc(N3CC4CCCNC4C3)cc2)[nH]c(=O)c(C(=O)O)c1O.Cl` (stereo not shown) [Cpd 272, 5-ethyl-4-hydroxy-6-[4-(octahydro-6H-pyrrolo[3,4-b]pyridin-6-yl)phenyl]-2-oxo-1,2-dihydropyridine-3-carboxylic acid hydrochloride]?
MIC [1]: < 1 µg/mL; MIC [2]: < 1 µg/mL; MIC [3]: 3.5 to 12.5 µg/mL; MIC [4]: < 1 µg/mL; MIC [12]: 3.5 to 12.5 µg/mL; MIC [5]: 1 to 3.5 µg/mL; MIC [6]: 1 to 3.5 µg/mL; MIC [7]: < 1 µg/mL; MIC [8]: 3.5 to 12.5 µg/mL; MIC [9]: 12.5 to 150 µg/mL; MIC [10]: 3.5 to 12.5 µg/mL; MIC [13]: < 1 µg/mL; MIC [11]: < 1 µg/mL; MIC [14]: < 1 µg/mL

With `CCc1c(-c2ccc(N3CCC(N(C)C)C3)cc2)[nH]c(=O)c(C(=O)O)c1O.Cl` (stereo not shown) [Cpd 275, 6-{4-[3-(dimethylamino)pyrrolidin-1-yl]phenyl}-5-ethyl-4-hydroxy-2-oxo-1,2-dihydropyridine-3-carboxylic acid hydrochloride] as the compound, how does the MIC [1] read?
Its MIC is less than 1 µg/mL.

What about the MIC [2] of the same compound?
Its MIC is less than 1 µg/mL.

And the MIC [3]?
The MIC was 12.5 to 150 µg/mL.

And the MIC [4]?
The MIC was 1 to 3.5 µg/mL.

And the MIC [12]?
Its MIC is 3.5 to 12.5 µg/mL.

What about the MIC [5] of the same compound?
Its MIC is 1 to 3.5 µg/mL.

And the MIC [6]?
Its MIC is 1 to 3.5 µg/mL.

And the MIC [7]?
The MIC was 1 to 3.5 µg/mL.

And the MIC [8]?
The MIC was 1 to 3.5 µg/mL.

And the MIC [9]?
The MIC was 12.5 to 150 µg/mL.

What about the MIC [10] of the same compound?
Its MIC is 3.5 to 12.5 µg/mL.

And the MIC [13]?
Its MIC is less than 1 µg/mL.

What about the MIC [11] of the same compound?
The MIC was less than 1 µg/mL.

What about the MIC [14] of the same compound?
The MIC was less than 1 µg/mL.

What does the source list for `CCc1c(-c2ccc(N3CC4CC4(N)C3)cc2)[nH]c(=O)c(C(=O)O)c1O.Cl` (stereo not shown) [Cpd 277, 6-[4-(1-amino-3-azabicyclo[3.1.0]hex-3-yl)phenyl]-5-ethyl-4-hydroxy-2-oxo-1,2-dihydropyridine-3-carboxylic acid hydrochloride]?
MIC [1]: < 1 µg/mL; MIC [2]: 1 to 3.5 µg/mL; MIC [3]: 3.5 to 12.5 µg/mL; MIC [4]: 3.5 to 12.5 µg/mL; MIC [12]: 12.5 to 150 µg/mL; MIC [5]: 12.5 to 150 µg/mL; MIC [6]: 3.5 to 12.5 µg/mL; MIC [7]: 1 to 3.5 µg/mL; MIC [8]: 12.5 to 150 µg/mL; MIC [9]: 12.5 to 150 µg/mL; MIC [10]: 12.5 to 150 µg/mL; MIC [13]: 1 to 3.5 µg/mL; MIC [11]: 1 to 3.5 µg/mL; MIC [14]: < 1 µg/mL

`CCc1c(-c2ccc(N3CCC(C(C)(C)N)C3)cc2)[nH]c(=O)c(C(=O)O)c1O.Cl` (stereo not shown) [Cpd 279, 6-{4-[3-(2-aminopropan-2-yl)pyrrolidin-1-yl]phenyl}-5-ethyl-4-hydroxy-2-oxo-1,2-dihydropyridine-3-carboxylic acid hydrochloride] was tested. Which MIC [1] did it give?
Its MIC is less than 1 µg/mL.

What about the MIC [2] of the same compound?
The MIC was 1 to 3.5 µg/mL.

What about the MIC [3] of the same compound?
Its MIC is 12.5 to 150 µg/mL.

What about the MIC [4] of the same compound?
Its MIC is less than 1 µg/mL.

What about the MIC [12] of the same compound?
The MIC was 3.5 to 12.5 µg/mL.

What about the MIC [5] of the same compound?
The MIC was 1 to 3.5 µg/mL.

And the MIC [6]?
The MIC was 12.5 to 150 µg/mL.

What about the MIC [7] of the same compound?
The MIC was 3.5 to 12.5 µg/mL.

And the MIC [8]?
Its MIC is 3.5 to 12.5 µg/mL.

What about the MIC [9] of the same compound?
The MIC was 12.5 to 150 µg/mL.

What about the MIC [10] of the same compound?
Its MIC is 12.5 to 150 µg/mL.

What about the MIC [13] of the same compound?
The MIC was 3.5 to 12.5 µg/mL.

And the MIC [11]?
Its MIC is 3.5 to 12.5 µg/mL.

What about the MIC [14] of the same compound?
Its MIC is 12.5 to 150 µg/mL.

`CCc1c(-c2ccc(N3C[C@H]4CCC[C@@H](NC)[C@H]4C3)cc2)[nH]c(=O)c(C(=O)O)c1O.Cl` [Cpd 296, 5-ethyl-4-hydroxy-6-{4-[(3aR,4R,7aS)-4-(methylamino)octahydro-2H-isoindol-2-yl]phenyl}-2-oxo-1,2-dihydropyridine-3-carboxylic acid hydrochloride] was tested. Which MIC [1] did it give?
Its MIC is less than 1 µg/mL.

And the MIC [2]?
Its MIC is 1 to 3.5 µg/mL.

And the MIC [3]?
Its MIC is 1 to 3.5 µg/mL.

And the MIC [4]?
The MIC was less than 1 µg/mL.

And the MIC [12]?
Its MIC is 12.5 to 150 µg/mL.

What about the MIC [5] of the same compound?
The MIC was 3.5 to 12.5 µg/mL.

What about the MIC [6] of the same compound?
The MIC was 12.5 to 150 µg/mL.

And the MIC [7]?
Its MIC is 1 to 3.5 µg/mL.

And the MIC [8]?
The MIC was 3.5 to 12.5 µg/mL.

And the MIC [9]?
The MIC was 12.5 to 150 µg/mL.

What about the MIC [10] of the same compound?
The MIC was 12.5 to 150 µg/mL.

What about the MIC [13] of the same compound?
The MIC was 3.5 to 12.5 µg/mL.

What about the MIC [11] of the same compound?
Its MIC is 3.5 to 12.5 µg/mL.

And the MIC [14]?
The MIC was less than 1 µg/mL.
